Experimental data published in US10766866B2, “Deterrents for arthropods and marine organisms” (priority 2017, dated 2020).
Like-named read-outs stand apart in the source and are kept apart here.

Experiments:
[1] = test system: IsTOctR (Ixodes octopamine receptor), cloned α-like OctR; assay: OctR activation: change in intracellular calcium (CALCIUM 6QR dye, FlexStation 3) in stably transfected mammalian cells; assay type: cell-based, Ixodes scapularis
From the text: (§1) Functional expression of cloned arthropod OctRs and human α2-ARs: The cDNAs for α-like OctRs from different arthropod species (e.g., Anopheles gambiae, Aedes aegypti, Periplaneta americana, Drosophila melanogaster, Ixodes scapularis, Balanus improvises) and for α2-AR subtypes from humans were individually subcloned into mammalian expression vectors. These plasmids, which harbor a resistance gene for the selection drug G418 and the cDNA sequence for the receptor of interest, were individually transfected into mammalian cells using a calcium phosphate precipitation method. G418 selection was then employed to generated stable clonal cell lines. Utilizing rapid filtration radioligand binding techniques, the cell surface density of receptor expression of the individual clonal cell lines was determined at equilibrium and those with similar high levels of expression were selected for further experiments. Briefly, binding conditions were 50 mM Tris binding buffer pH 7.4 at 25° C. and an ice-cold wash buffer 10 mM Tris-HCl, pH 7.4). The radioligand was [3H]rauwolscine and non-specific binding was determined in the presence of 10 μM atipamezole. Following the addition of membranes prepared from the clonal cell lines, samples were mixed and allowed 2 hr. to reach equilibrium before rapid filtration and washing through 0.3% PEI-treated GF/C filters. The radioactivity remaining on the filters was quantified by scintillation counting. Receptor density (Bmax) was back calculated knowing the specific activity of the radioligand and applying the equation for a square hyperbola model: Bmax=(Y·(KD+X))/X, where Y is [specifically bound radioligand] and X=[radio ligand concentration]. The affinity (KD) for the radioligand for each receptor was determined in separate saturation isotherm binding experiments using the same binding conditions as describe above.
(§2) Measurement of OctR activation by measuring changes in intracellular calcium: Activation of arthropod α-like OctRs increases intracellular calcium via a Gq-coupling mechanism. This involves activation of phospholipase C leading to an increase in intracellular inositol triphosphate (IP3) which then activates IP3-gated calcium channels in the endoplasmic reticulum causing a transient rise in intracellular calcium. These changes in intracellular calcium upon OctR activation were measured by loading cells with intracellular calcium sensitive dye CALCIUM 6QR and reading the change in calcium-induced fluorescent signal over time on a FlexStation 3 microplate reader.

[2] = molecular target: T1, AgAOctR (Anopheles octopamine receptor isoform A), cloned α-like OctR (Anopheles gambiae, UniProt Q7PRZ8); assay: as above; assay type: cell-based; conditions: agonist
T1 construct: Gq calcium readout
T1 sequence (Q7PRZ8 1-592): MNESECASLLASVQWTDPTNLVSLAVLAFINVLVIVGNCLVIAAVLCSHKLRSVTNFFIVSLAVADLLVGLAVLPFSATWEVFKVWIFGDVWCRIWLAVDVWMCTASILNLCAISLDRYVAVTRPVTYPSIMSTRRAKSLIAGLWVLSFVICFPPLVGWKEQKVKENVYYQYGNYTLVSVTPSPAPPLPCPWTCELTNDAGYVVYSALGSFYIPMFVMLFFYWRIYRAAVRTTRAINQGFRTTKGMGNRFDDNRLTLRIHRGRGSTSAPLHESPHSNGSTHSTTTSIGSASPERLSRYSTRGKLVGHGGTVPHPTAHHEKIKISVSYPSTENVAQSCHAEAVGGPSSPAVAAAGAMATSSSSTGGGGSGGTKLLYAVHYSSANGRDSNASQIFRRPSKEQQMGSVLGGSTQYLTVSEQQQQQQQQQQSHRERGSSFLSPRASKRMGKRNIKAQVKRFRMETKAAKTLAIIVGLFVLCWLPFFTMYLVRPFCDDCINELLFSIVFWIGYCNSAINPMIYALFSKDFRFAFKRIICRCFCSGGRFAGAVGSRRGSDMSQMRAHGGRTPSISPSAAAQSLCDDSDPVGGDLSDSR
From the text: as §1, §2

[3] = test system: Ixodes scapularis tick OctR (IsTOctR); assay: OctR activation, change in intracellular calcium; assay type: cell-based; conditions: 100 μM; normalized to octopamine at a supersaturating concentration; FIG. 1C
From the text: as §1, §2

[4] = molecular target: T2, Drosophila melanogaster α-like OctR (DmOctR) (Drosophila melanogaster, UniProt Q7JQF1); assay: OctR activation, change in intracellular calcium; assay type: cell-based; conditions: 100 μM; normalized to octopamine at a supersaturating concentration; FIG. 1A
T2 construct: expressed in transfected cells
T2 sequence (Q7JQF1 1-645): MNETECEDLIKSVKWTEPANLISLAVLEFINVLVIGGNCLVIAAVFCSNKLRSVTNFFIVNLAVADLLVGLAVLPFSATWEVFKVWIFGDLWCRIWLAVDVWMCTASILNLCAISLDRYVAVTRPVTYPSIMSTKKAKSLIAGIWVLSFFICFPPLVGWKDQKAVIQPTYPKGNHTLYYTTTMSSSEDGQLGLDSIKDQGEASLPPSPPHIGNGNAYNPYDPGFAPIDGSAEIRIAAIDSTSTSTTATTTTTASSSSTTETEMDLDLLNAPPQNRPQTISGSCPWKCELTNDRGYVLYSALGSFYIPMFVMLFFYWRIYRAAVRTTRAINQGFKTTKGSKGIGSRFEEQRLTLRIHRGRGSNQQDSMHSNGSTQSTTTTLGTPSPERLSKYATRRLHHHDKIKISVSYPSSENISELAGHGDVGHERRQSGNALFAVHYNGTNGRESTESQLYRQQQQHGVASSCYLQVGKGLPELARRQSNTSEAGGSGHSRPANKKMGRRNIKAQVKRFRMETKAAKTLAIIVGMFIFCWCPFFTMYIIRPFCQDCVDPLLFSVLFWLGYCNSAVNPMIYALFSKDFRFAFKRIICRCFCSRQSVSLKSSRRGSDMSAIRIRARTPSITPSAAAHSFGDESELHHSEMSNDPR
From the text: as §1, §2

[5] = test system: Periplaneta americana OctR (PaOctR); assay: OctR activation, change in intracellular calcium; assay type: cell-based; conditions: 100 μM; normalized to octopamine at a supersaturating concentration; FIG. 1D
From the text: as §1, §2

[6] = test system: Aedes aegypti α-like OctR (AeOctR); assay: OctR activation, change in intracellular calcium; assay type: cell-based; conditions: 100 μM; normalized to octopamine at a supersaturating concentration; FIG. 1B
From the text: as §1, §2

[7] = test system: AeOctR (Aedes octopamine receptor), cloned α-like OctR; assay: OctR activation: change in intracellular calcium (CALCIUM 6QR dye, FlexStation 3) in stably transfected mammalian cells; assay type: cell-based, Aedes aegypti; conditions: agonist
From the text: as §1, §2

[8] = molecular target: T3, Hsα2C-AR (human α2C adrenergic receptor) (Homo sapiens, UniProt P18825); assay: [3H]rauwolscine competition radioligand binding, membranes of clonal mammalian cell lines; conditions: 50 mM Tris pH 7.4, 25° C., 2 hr, Cheng-Prusoff
T3 construct: expressed in transfected cells
T3 sequence (P18825 1-462): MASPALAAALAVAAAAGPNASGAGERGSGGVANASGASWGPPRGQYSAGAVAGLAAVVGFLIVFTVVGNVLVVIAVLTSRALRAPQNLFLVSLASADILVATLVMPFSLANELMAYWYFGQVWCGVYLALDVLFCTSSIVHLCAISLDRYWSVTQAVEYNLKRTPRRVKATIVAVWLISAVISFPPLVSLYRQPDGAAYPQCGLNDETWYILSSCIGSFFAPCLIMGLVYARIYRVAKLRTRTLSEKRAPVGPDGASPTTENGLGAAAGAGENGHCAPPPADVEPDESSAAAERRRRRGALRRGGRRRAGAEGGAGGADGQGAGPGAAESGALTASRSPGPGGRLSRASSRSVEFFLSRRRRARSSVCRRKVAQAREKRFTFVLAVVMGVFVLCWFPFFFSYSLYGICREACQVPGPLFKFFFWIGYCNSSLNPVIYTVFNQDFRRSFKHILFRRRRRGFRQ
From the text: as §1
(§3) Measurement of compound affinities by competition radioligand binding: Affinities (Ki) for compounds were determined by [3H]rauwolscine competition binding using the same binding conditions as described above. The Ki values were calculated from IC50 values using the Cheng-Prusoff equation.

[9] = molecular target: T4, Hsα2A-AR (human α2A adrenergic receptor) (Homo sapiens, UniProt P08913); assay: as above; conditions: 50 mM Tris pH 7.4, 25° C., 2 hr, Cheng-Prusoff
T4 construct: expressed in transfected cells; membranes
From the text: as §1, §3

[10] = test system: Anopheles gambiae mosquito isoform A OctR (AgAOctR); assay: OctR activation, change in intracellular calcium; assay type: cell-based; conditions: for selectivity Ki(Hsα2-AR)/EC50(OctR): AgAOctR over Homo sapien α2-AR subtypes
From the text: as §1, §2

[11] = molecular target: T5, PaOctR (Periplaneta octopamine receptor), cloned α-like OctR (Periplaneta americana, UniProt Q7YWB7); assay: OctR activation: change in intracellular calcium (CALCIUM 6QR dye, FlexStation 3) in stably transfected mammalian cells; assay type: cell-based; conditions: agonist
T5 construct: Gq calcium readout
T5 sequence (Q7YWB7 1-628): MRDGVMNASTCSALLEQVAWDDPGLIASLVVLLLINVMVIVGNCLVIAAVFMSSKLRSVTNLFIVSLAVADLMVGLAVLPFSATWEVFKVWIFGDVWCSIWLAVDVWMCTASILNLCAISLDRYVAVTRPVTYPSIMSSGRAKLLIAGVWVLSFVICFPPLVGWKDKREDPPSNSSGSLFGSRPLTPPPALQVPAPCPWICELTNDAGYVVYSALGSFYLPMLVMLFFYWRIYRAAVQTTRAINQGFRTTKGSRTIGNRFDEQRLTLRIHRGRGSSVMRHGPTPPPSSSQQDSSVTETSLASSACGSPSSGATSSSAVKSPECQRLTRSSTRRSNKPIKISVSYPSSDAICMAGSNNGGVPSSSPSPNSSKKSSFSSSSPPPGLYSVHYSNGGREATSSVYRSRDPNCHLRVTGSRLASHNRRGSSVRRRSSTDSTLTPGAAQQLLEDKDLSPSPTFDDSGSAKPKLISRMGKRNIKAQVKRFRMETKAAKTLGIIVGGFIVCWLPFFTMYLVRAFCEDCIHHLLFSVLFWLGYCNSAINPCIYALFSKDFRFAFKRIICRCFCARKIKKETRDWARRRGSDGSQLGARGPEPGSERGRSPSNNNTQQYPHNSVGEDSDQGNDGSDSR
From the text: as §1, §2

[12] = molecular target: T6, DmOctR (Drosophila octopamine receptor), cloned α-like OctR (Drosophila melanogaster, UniProt Q7JQF1); assay: as above; assay type: cell-based; conditions: agonist
T6 construct: Gq calcium readout
T6 sequence (Q7JQF1 1-645): T2 sequence (Q7JQF1 1-645)
From the text: as §1, §2

[13] = agonist, read-out: IsTOctR (Ixodes octopamine receptor) EC50

T4 sequence (P08913 whole entry): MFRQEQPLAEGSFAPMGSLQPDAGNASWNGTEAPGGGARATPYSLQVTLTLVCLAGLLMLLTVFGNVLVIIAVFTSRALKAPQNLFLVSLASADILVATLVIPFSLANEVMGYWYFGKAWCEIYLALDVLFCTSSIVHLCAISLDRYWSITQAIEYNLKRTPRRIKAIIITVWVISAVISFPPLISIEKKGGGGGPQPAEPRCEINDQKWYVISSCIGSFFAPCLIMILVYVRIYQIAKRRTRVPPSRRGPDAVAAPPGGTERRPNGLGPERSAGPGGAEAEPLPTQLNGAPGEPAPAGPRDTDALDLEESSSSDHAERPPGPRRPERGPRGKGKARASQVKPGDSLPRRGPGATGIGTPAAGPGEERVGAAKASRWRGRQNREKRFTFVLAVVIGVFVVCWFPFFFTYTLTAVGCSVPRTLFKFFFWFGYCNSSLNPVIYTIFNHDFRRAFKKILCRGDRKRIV

C/C=C(/c1cnc[nH]1)c1cccc(C)c1C [AZ1440 E-isomer]
EC50 ([1]; read-out: IsTOctR (Ixodes octopamine receptor) EC50, agonist): 90 ± 25 nM | EC50 [2]: 10 ± 4.7 nM

CCCCN(CCC(=O)OCC)C(C)=O [IR3535, ethyl butylacetylaminopropionate]
agonist response (change in intracellular calcium) relative to octopamine [3]: did not produce a significant agonist response | agonist response (change in intracellular calcium) relative to octopamine [4]: did not produce a significant agonist response | agonist response (change in intracellular calcium) relative to octopamine [5]: did not produce a significant agonist response | agonist response (change in intracellular calcium) relative to octopamine [6]: did not produce a significant agonist response

COC(c1cnc[nH]1)c1cccc(C)c1C (stereo not drawn) [AZ1400]
EC50 [7]: > 20000 nM | Ki [8]: 973 ± 146 nM | Ki [9]: 1310 ± 247 nM | EC50 [1, 13]: 35 ± 7.4 nM | selectivity Ki(Hsα2-AR)/EC50(OctR) [10]: highly selective | EC50 [11]: 85 ± 34 nM | EC50 [12]: 846 ± 440 nM | EC50 [2]: 2.3 ± 0.69 nM

C=C(c1cnc[nH]1)c1cccc(C(F)(F)F)c1C [AZ1415]
EC50 [1, 13]: 18 ± 6.9 nM | selectivity Ki(Hsα2-AR)/EC50(OctR) [10]: highly selective | efficacy (full/partial agonist) ([10]; in words, FIGS. 9-12): full efficacy | potency (EC50) ([10]; in words, FIGS. 9-12): high potency | EC50 [2]: 0.58 ± 0.61 nM

Cc1cccc(C(O)c2cnc[nH]2)c1C (stereo not drawn) [AZ0024]
EC50 [7]: 627 ± 274 nM | Ki [8]: 558 ± 85 nM | Ki [9]: 356 ± 77 nM | EC50 [1, 13]: 4.4 ± 2.9 nM | selectivity Ki(Hsα2-AR)/EC50(OctR) [10]: highly selective | EC50 [11]: 5.9 ± 2.9 nM | EC50 [12]: 57 ± 13 nM | EC50 [2]: 0.42 ± 0.13 nM
